Measurements published in patent US9464113B2, “Anti-heparan sulfate peptides that block herpes simplex virus infection in vivo” (The Board of Trustees of the University of Illinois, priority 2010, dated 2016).
No end group written: not given here.

Experiments:
Format in all cases: cell-based, herpes simplex virus type-1
HSV-1 (KOS) gL86 [1] = assay: HSV-1 entry assay in CHO-K1 cells expressing gD receptors (3-OST-3, nectin-1, HVEM); settings: CHO-K1 cells expressing one of three gD receptors; dose-dependent
Description: (§1) HSV-1 entry was assayed as described in Shukla et al., Cell 99:13-22 (1999). CHO-K1 cells were grown in 6-well plates to subconfluence and then transfected with 2.5 μg of expression plasmids for gD receptors nectin-1 (pBG38), HVEM (pBec10), 3-OST-3 isoform (pDS43), or pCDNA3.1 (empty vector) using LipofectAMINE (Gibco/BRL). At 16 h post-transfection, the cells were replated into 96-well dishes for pre-incubation with peptides at different concentrations for 60 min at room temperature. In parallel, natural target cells (HeLa, CF, and RPE) were also pre-treated with the peptides for the same duration. In all cases, unbound peptides were removed after washing 3× with PBS. Thereafter, cells were infected for 6 h with a recombinant virus, HSV-1 (KOS) gL86, at multiple plaque forming units (PFUs) and β-galactosidase assays were performed using either a soluble substrate o-nitrophenyl-β-D-galactopyranoside (ONPG at 3.0 mg/ml; ImmunoPure, Pierce) or X-gal (Sigma). For the soluble substrate, the enzymatic activity was measured at 410 nm using a micro-plate reader (Spectra Max 190, Molecular Devices, Sunnyvale, Calif.). For the X-gal assay, cells were fixed (2% formaldehyde and 0.2% glutaraldehyde) and permeabilized (2 mM MgCl2, 0.01% deoxycholate, and 0.02% nonidet NP-40 (Sigma)). 1 ml of β-galactosidase reagent (1.0 mg/ml X-gal in ferricyanide buffer) was added to each well and incubated at 37° C. for 90 min before the cells were examined using bright field microscopy under the 20× objectives of the inverted microscope (Zeiss Axiovert 100 M).
Peptide sequences from individual plaques were deduced by determining the nucleotide sequences of the portion of the phage genome that encoded them. The predicted peptide sequences of about 200 plaques were determined and sorted into two groups on the basis of their targets. […] After 6 hr, the cells were washed, permeabilized, and incubated with ONPG substrate (3.0 mg/ml) for quantitation of β-galactosidase activity expressed from the input viral genome. The enzymatic activity was measured at an optical density of 410 nm (OD410). […]

HSV-1 (KOS) gL86 [2] = assay: HSV-1 entry into primary human corneal fibroblasts (CF); settings: for blocking of HSV-1 entry/infection: human CF, 60 min pre-treatment, 25 pfu/cell, 6 hr
Description: as §1
(§2) The ability of the G1 and G2 peptides to block HSV-1 entry into natural target cells (HeLa and primary cultures of human CF) was compared. A similar dosage response curve was generated when HeLa (FIG. 2A) or CF (FIG. 2B) were pre-treated with G1 or G2 peptides during HSV-1 entry. […] HeLa cells (FIG. 2A) and primary cultures of human corneal fibroblasts (CF) (FIG. 2B) were tested. Cells in 96-well plates were pre-treated for 60 min with indicated mM concentrations of G1, G2, or Cp peptides. Mock-treated cells (abbreviated as C) served as a control. Pretreated cells were infected with a β galactosidase-expressing recombinant virus HSV-1 (KOS) HSV-1 gL86 (25 pfu/cell) for 6 hr. Viral entry was quantitated as described above in reference to FIG. 1. Confirmation of HSV-1 entry blocking activity of G1, G2, and control (Cp) peptides on a per cell basis was obtained after cells were infected as described above followed by X-gal (1.0 mg/ml) staining (Right panels), which yields an insoluble blue product upon hydrolysis by β-galactosidase expressed from the input viral genomes. […] Microscopy was performed using a 20× objective of Zeiss Axiovert 100.
To better understand the inhibitory potential of G1 and G2 peptides, synthetic short variants (10-mer) were synthesized that lacked the terminal non-positively charged amino acids. In case of G1, N-terminus L and C-terminus H residues were removed. For G2, the N-terminus flanking residues (M and P) were removed. Without being bound by theory, it is believed that 12-mer peptides are too short to adopt substantial secondary or tertiary structures and that the primary structure of those peptides, which includes a defined sequence or groupings of positively charged residues, plays a critical role in mediating inhibition of HSV-1 entry. Synthetic 10-mer versions of G1 and G2 (shown above) were tested for blocking HSV-1(KOS)gL86 entry into cultured CF. After 6 h, the viral entry was measured by ONPG assay as described in FIG. 1.
Alanine (A) scanning mutagenesis was performed to identify specific amino acid residues responsible for each peptide's function, stability, and conformation. O'Nuallain et al., Biochemistry 46:13049-13058 (2007). Twelve synthetic peptides were made whereby each residue of G2 was sequentially replaced with an alanine residue and corresponding changes in the G2 peptide were evaluated for their ability to affect viral entry (FIG. 4B). […]

HSV-1 (KOS) gL86 [3] = assay: HSV-1 entry into HeLa cells (ONPG and X-gal); settings: for blocking of HSV-1 entry/infection: HeLa cells, 60 min pre-treatment, 25 pfu/cell, 6 hr
Description: as §1, §2

Sequence | blocking of HSV-1 entry (HSV-1 (KOS) gL86 [1]) | blocking of HSV-1 entry/infection (HSV-1 (KOS) gL86 [2]) | blocking of HSV-1 entry/infection (HSV-1 (KOS) gL86 [3]) | activity normalized against wild-type G2 (higher than 1 = loss of activity) (HSV-1 (KOS) gL86 [2]; alanine scanning, FIG. 4B) | effectiveness in blocking entry compared with G1 (HSV-1 (KOS) gL86 [3]; in virtually all cases (FIGS. 1 and 2))
RVCGSIGKEVLG [Cp, reference compound] | did not inhibit HSV-1 entry | no effect on HSV-1 entry | no effect on HSV-1 entry | – | –
MPRRRRIRRRQK [G2, MPRRRRIRRRQK] | able to block HSV-1 entry | effective in blocking infection of individual cells | effective in blocking infection of individual cells | 1.00 | slightly more effective in blocking entry than G1
LRSRTKIIRIRH [G1, LRSRTKIIRIRH] | able to block HSV-1 entry | effective in blocking infection of individual cells | effective in blocking infection of individual cells | – | –
